Source: patent US11584765B2 (priority 2017, dated 2023)

Test system: C57BL/6 mice
Assay: animal or person
Format: in vivo
Conditions: Mus musculus, sc, 0.5 h, s.c. administration, 30 min, 55° C. water, read-out: ED50 (mg/kg) at 30 min on C57BL/6 mice in Warm-water Tail-flick Test

| Compound | ED50 [mg/kg] |
| --- | --- |
| CC(=O)Nc1ccc(CN2CCC(CCc3ccccc3)(C3C=CCO3)CC2)cc1 (centres unmarked) [Compound 74, N-(4-((4-(2,5-dihydrofuian-2-yl)-4-phenethylpiperidin-1-yl)methyl)phenyl)acetamide] | < 10 |
| COC1(CCc2ccccc2)CCN(Cc2ccc(NC(C)=O)cc2)CC1 [Compound 75, N-(4-((4-methoxy-4-phenethylpiperidin-1-yl)methyl)phenyl)acetamide] | > 10 |
| COCCC1(CCc2ccccc2)CCN(Cc2ccc(NC(C)=O)cc2)CC1.Cl [Compound 76, N-(4-((4-(2-methoxyethyl)-4-phenethylpiperidin-1-yl)methyl)phenyl)acetamide HCl] | > 10 |
| CCOC(=O)NCC1(CCc2ccccc2)CCN(Cc2ccc(NC(C)=O)cc2)CC1 [Compound 77, ethyl (1-(4-acetamidobenzyl)-4-phenethylpiperidin-4-yl)methylcarbamate] | > 10 |
| CCOCC1(CCc2ccccc2)CCN(Cc2ccccc2)CC1 [Compound 78, 1-benzyl-4-(ethoxymethyl)-4-phenethylpiperidine] | > 10 |
| CCOCC1(CCc2ccccc2)CCN(C)CC1 [Compound 79, 4-(ethoxymethyl)-1-methyl-4-phenethylpiperidine] | > 10 |
| C=CCN1CCC(CCc2ccccc2)(COCC)CC1 [Compound 80, 1-allyl-4-(ethoxymethyl)-4-phenethylpiperidine] | > 10 |
| CCOCC1(CCc2ccccc2)CCN(Cc2ccc(NC(=O)CC)cc2)CC1 [Compound 81, N-(4-((4-(ethoxymethyl)-4-phenethylpiperidin-1-yl)methyl)phenyl)pro-pionamide] | > 10 |
| CCCCC(=O)Nc1ccc(CN2CCC(CCc3ccccc3)(COCC)CC2)cc1 [Compound 82, N-(4-((4-(ethoxymethyl)-4-phenethylpiperidin-1-yl)methyl)phenyl)pen-tanamide] | > 10 |
| CCOCC1(CCc2ccccc2)CCN(Cc2ccc(NC(N)=O)cc2)CC1 [Compound 83, 1-(4-((4-(ethoxymethyl)-4-phenethylpiperidin-1-yl)methyl)phenyl)urea] | > 10 |
| CCOCC1(CCc2ccccc2)CCN(Cc2ccc(NC(C)=O)c(F)c2)CC1 [Compound 84, N-(4-((4-(ethoxymethyl)-4-phenethylpiperidin-1-yl)methyl)-2-fluorophenyl)acetamide] | > 10 |
| CCOCC1(CCc2ccccc2)CCN(Cc2ccc(NC(C)=O)cc2F)CC1 [Compound 85, N-(4-((4-(ethoxymethyl)-4-phenethylpiperidin-1-yl)methyl)-3-fluorophenyl)acetamide] | > 10 |
| CCOCC1(CCc2ccccc2)CCN(Cc2ccc(NC(C)=O)s2)CC1.Cl [Compound 86, N-(5-((4-(ethoxymethyl)-4-phenethylpiperidin-1-yl)methyl)thiophen-2-yl)acetamide HCl] | > 10 |
| CCOCC1(CCc2ccccc2)CCN(Cc2cnc(NC(C)=O)s2)CC1 [Compound 87, N-(5-((4-(ethoxymethyl)-4-phenethylpiperidin-1-yl)methyl)thiazol-2-yl)acetamide] | > 10 |
| CCOCC1(CCc2ccccc2)CCN(Cc2ccc(NCC(F)(F)F)cc2)CC1 [Compound 88, 4-((4-(ethoxymethyl)-4-phenethylpiperidin-1-yl)methyl)-N-(2,2,2-trifluoroethyl)aniline] | > 10 |
| CCOCC1(CCc2ccccc2)CCN(Cc2ccc(C(N)=O)cc2)CC1 [Compound 89, 4-((4-(ethoxymethyl)-4-phenethylpiperidin-1-yl)methyl)benzamide] | > 10 |
| CCOCC1(CCc2ccccc2)CCN(Cc2ccc(C(=O)NC)cc2)CC1 [Compound 90, 4-((4-(ethoxymethyl)-4-phenethylpiperidin-1-yl)methyl)-N-methylbenzamide] | > 10 |
| CC(=O)Nc1ccc(CN2CCC(CCc3ccccc3)(C3CCO3)CC2)cc1 (centres unmarked) [Compound 91, N-(4-((4-(oxetan-2-yl)-4-phenethylpiperidin-1-yl)methyl)phenyl)acetamide] | < 10 |
| CCOCC1(CCc2ccccc2)CCN(Cc2ccc(NC(C)=O)cn2)CC1 [Compound 92, N-(6-((4-(ethoxymethyl)-4-phenethylpiperidin-1-yl)methyl)pyridin-3-yl)acetamide] | > 10 |
| CCCOCC1(CCc2ccccc2)CCN(Cc2ccc(NC(C)=O)cc2)CC1 [Compound 93, N-(4-((4-phenethyl-4-(propoxy-methyl)piperidin-1-yl)methyl)phenyl)acetamide] | > 10 |
| CC(=O)Nc1ccc(CN2CCC(CCc3ccccc3)(C3CO3)CC2)cc1 (centres unmarked) [Compound 94, N-(4-((4-(oxiran-2-yl)-4-phenethylpiperidin-1-yl)methyl)phenyl)acetamide] | > 10 |
| CCOCC1(CCc2ccccc2)CCN(Cc2ccc(NC(=O)C(C)C)cc2)CC1 [Compound 95, N-(4-((4-(ethoxymethyl)-4-phenethylpiperidin-1-yl)methyl)phenyl)iso-butyramide] | > 10 |

| Compound | ED50 [mg/kg] |
| --- | --- |
| CCOCC1(CCc2ccccc2)CCN(Cc2ccc(NC(C)=O)cc2)C1 (centres unmarked) [Compound 96, N-(4-((3-(ethoxymethyl)-3-phenethylpyrrolidin-1-yl)methyl)phenyl)acetamide] | < 10 |
| CCOCC1(CCc2ccccc2)CN(Cc2ccc(NC(C)=O)cc2)C1.Cl [Compound 97, N-(4-((3-(ethoxymethyl)-3-phenethylazetidin-1-yl)methyl)phenyl)acetamide HCl] | > 10 |
| CCOCC1(CCc2ccccc2)CCCN(Cc2ccc(NC(C)=O)cc2)CC1 (centres unmarked) [Compound 98, N-(4-((4-(ethoxymethyl)-4-phenethylazepan-1-yl)methyl)phenyl)acetamide] | > 10 |
| CCOCC1(CCc2ccccc2)CN(CCc2ccc(NC(C)=O)cc2)C1 [Compound 99, N-(4-(2-(3-(ethoxymethyl)-3-phenethylazetidin-1-yl)ethyl)phenyl)acetamide] | > 10 |
| C=CCCC1(COCC)CCN(Cc2ccc(NC(C)=O)cc2)CC1 [Compound 100, N-(4-((4-(but-3-enyl)-4-(ethoxymethyl)piperidin-1-yl)methyl)phenyl)acetamide] | > 10 |
| CCOCC1(CCC2CC2)CCN(Cc2ccc(NC(C)=O)cc2)CC1 [Compound 101, N-(4-((4-(2-cyclopropylethyl)-4-(ethoxymethyl)piperidin-1-yl)methyl)phenyl)acetamide] | > 10 |
| CCOCC1(CCc2cccs2)CCN(Cc2ccc(NC(C)=O)cc2)CC1.Cl [Compound 102, N-(4-((4-(ethoxymethyl)-4-(2-(thiophen-2-yl)ethyl)piperidin-1-yl)methyl)phenyl)acetamide HCl] | < 10 |
| CCOCC1(CCc2nccs2)CCN(Cc2ccc(NC(C)=O)cc2)CC1.Cl [Compound 103, N-(4-((4-(ethoxymethyl)-4-(2-(thiazol-2-yl)ethyl)piperidin-1-yl)methyl)phenyl)acetamide HCl] | > 10 |
| CCOCC1(CCc2ccc(F)cc2)CCN(Cc2ccc(NC(C)=O)cc2)CC1 [Compound 104, N-(4-((4-(ethoxymethyl)-4-(4-fluoro-phenethyl)piperidin-1-yl)methyl)phenyl)acetamide] | > 10 |
| CCOCC1(CCc2ccc(O)cc2)CCN(Cc2ccc(NC(C)=O)cc2)CC1.Cl [Compound 105, N-(4-((4-(ethoxymethyl)-4-(4-hydroxy-phenethyl)piperidin-1-yl)methyl)phenyl)acetamide HCl] | > 10 |
| CCOCC1(CCc2ccc(OC)cc2)CCN(Cc2ccc(NC(C)=O)cc2)CC1.Cl [Compound 106, N-(4-((4-(ethoxymethyl)-4-(4-methoxy-phenethyl)piperidin-1-yl)methyl)phenyl)acetamide HCl] | > 10 |
| CC(=O)Nc1ccc(CN2CCC(CCc3ccccc3)(COC(F)F)CC2)cc1 [Compound 107, N-(4-((4-((difluoro-methoxy)methyl)-4-phenethylpiperidin-1-yl)methyl)phenyl)acetamide] | > 10 |
| CCOCC1(CCc2ccccc2)CCN(Cc2ccc3[nH]c(=O)[nH]c3c2)CC1 [Compound 108, 5-((4-(ethoxymethyl)-4-phenethylpiperidin-1-yl)methyl)-1H-benzo[d]imidazol-2(3H)-one] | > 10 |
| CCOCC1(CCc2ccccc2)CCN(Cc2ccc3c(c2)CC(=O)N3)CC1 [Compound 109, 5-((4-(ethoxymethyl)-4-phenethylpiperidin-1-yl)methyl)indolin-2-one] | > 10 |
| CCOCC1(CCc2ccccc2)CCN(Cc2ccc3[nH]ccc3c2)CC1 [Compound 110, 5-((4-(ethoxymethyl)-4-phenethylpiperidin-1-yl)methyl)-1H-indole] | > 10 |
| CCOCC1(CCc2ccccc2)CCN(Cc2ccc3[nH]c(=O)oc3c2)CC1 [Compound 111, 6-((4-(ethoxymethyl)-4-phenethylpiperidin-1-yl)methyl)benzo[d]oxazol-2(3H)-one] | > 10 |
| CCOCC1(CCc2ccccc2)CCN(Cc2ccc3[nH]cnc3c2)CC1 [Compound 112, 5-((4-(ethoxymethyl)-4-phenethylpiperidin-1-yl)methyl)-1H-benzo[d]imidazole] | > 10 |
| CC(=O)Nc1ccc(CN2CCC(CCc3ccccc3)(COC3CCCC3)CC2)cc1 [Compound 113, N-(4-((4-(cyclopentyloxy-methyl)-4-phenethylpiperidin-1-yl)methyl)phenyl)acetamide] | > 10 |
| CC(=O)Nc1ccc(CN2CCC(CCc3ccccc3)(COc3ccccc3)CC2)cc1 [Compound 114, N-(4-((4-phenethyl-4-(phenoxy-methyl)piperidin-1-yl)methyl)phenyl)acet-amide] | > 10 |
| CCOCC1(CCc2ccccc2)CCN(Cc2ccc(NC(=O)C(F)(F)F)cc2)CC1 [Compound 115, N-(4-((4-(ethoxymethyl)-4-phenethylpiperidin-1-yl)methyl)phenyl)-2,2,2-trifluoroacetamide] | > 10 |
| CCOCC1(CCc2ccccc2)CCN(Cc2ccc(NC(=O)N(C)C)cc2)CC1 [Compound 116, 3-(4-((4-(ethoxymethyl)-4-phenethylpiperidin-1-yl)methyl)phenyl)-1,1-dimethylurea] | > 10 |
| CCOCC1(CCc2ccccc2)CCN(Cc2ccc(NC(=O)NC)cc2)CC1 [Compound 117, 1-(4-((4-(ethoxymethyl)-4-phenethylpiperidin-1-yl)methyl)phenyl)-3-methylurea] | > 10 |
